Data from patent publication US12637468B2, “Substituted [1,2,4]triazolo[4,3-b]pyridazines as GABAA receptor modulators” (SHANGHAI SIMR BIOTECHNOLOGY CO., LTD., priority 2019, dated 2026).
Converted amounts (≈) assume the structure as drawn.

Key:
[1] = Thermodynamic solubility in simulated intestinal fluid (TS in FaSSIF); assay type: physicochemical; conditions: thermodynamic from solid, 37° C.
Description: Simulated intestinal fluid FaSSIF: 54.76 mg of FaSSIF-V2 (Biorelevant, batch. V2FAS-0619-A, lot. V2FAS01) was weighed and added to 15 mL of a buffer solution. After dissolving, the solution was supplemented to 30 mL, and put at room temperature for 1 hour before use.
Waters e2695 HPLC high performance liquid chromatography, Mettler XSE105 analytical balance.
Firstly, a 10 mM stock solution was prepared with DMSO, and was diluted with a diluent (ACN: PB buffer 50:50) into 1 μM-200 μM as a standard solution.
Thermodynamic solubility in intestinal fluid (TS in FaSSIF) was simulated. About 0.3 mg of each sample was weighed and added to 1.5 mL of FaSSIF solution, with two parts in parallel, shaken at 1000 rpm at 37° C. for 4 hours, filtered. 1 mL of an initial filtrate was discarded, and 400 μL of the subsequent filtrate was taken. The filtrate was detected by high performance liquid chromatograph (UV).

[2] = target: T1, α5-GABAA receptor (Homo sapiens, UniProt P18507+P31644); assay: Cell-level screening: whole cell patch clamp, inverse agonist efficacy on α5-GABAA receptor expressed in HEK293; assay type: cell-based; conditions: drug 100 nM, GABA 0.05 μM, HEK293 expressing α5, β3 and γ2 subunits, clamped at −60 mV; read-out: Compound inverse agonist efficacy %
T1 construct: expressed in transfected cells; host or cells: HEK293, monoclonal stably transfected line
T1 sequence (P31644 32-462): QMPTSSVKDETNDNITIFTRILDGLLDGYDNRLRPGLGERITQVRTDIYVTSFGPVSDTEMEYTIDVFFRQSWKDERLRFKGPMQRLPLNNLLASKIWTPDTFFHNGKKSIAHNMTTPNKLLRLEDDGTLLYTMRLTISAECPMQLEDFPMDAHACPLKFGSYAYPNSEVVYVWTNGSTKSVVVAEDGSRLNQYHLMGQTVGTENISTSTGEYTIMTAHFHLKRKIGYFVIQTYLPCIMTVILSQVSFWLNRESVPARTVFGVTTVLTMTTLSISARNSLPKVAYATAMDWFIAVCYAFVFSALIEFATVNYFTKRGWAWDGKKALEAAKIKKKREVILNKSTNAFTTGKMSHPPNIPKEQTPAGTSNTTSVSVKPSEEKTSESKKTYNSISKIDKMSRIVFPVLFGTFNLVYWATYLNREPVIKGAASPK
T1 sequence (P28472 26-473 partner): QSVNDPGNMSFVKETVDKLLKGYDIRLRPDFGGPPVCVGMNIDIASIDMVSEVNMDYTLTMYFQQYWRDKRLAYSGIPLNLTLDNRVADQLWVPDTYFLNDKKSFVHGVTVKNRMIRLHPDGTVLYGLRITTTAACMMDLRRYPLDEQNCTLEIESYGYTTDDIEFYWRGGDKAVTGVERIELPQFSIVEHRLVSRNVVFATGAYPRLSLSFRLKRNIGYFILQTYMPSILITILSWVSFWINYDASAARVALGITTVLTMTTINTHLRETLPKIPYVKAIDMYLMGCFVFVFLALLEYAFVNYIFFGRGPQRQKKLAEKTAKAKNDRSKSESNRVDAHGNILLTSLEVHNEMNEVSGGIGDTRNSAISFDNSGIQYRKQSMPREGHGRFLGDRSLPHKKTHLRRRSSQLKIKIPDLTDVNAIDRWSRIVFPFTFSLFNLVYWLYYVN
T1 sequence (P18507 40-467 isoform P18507-1 limits assumed): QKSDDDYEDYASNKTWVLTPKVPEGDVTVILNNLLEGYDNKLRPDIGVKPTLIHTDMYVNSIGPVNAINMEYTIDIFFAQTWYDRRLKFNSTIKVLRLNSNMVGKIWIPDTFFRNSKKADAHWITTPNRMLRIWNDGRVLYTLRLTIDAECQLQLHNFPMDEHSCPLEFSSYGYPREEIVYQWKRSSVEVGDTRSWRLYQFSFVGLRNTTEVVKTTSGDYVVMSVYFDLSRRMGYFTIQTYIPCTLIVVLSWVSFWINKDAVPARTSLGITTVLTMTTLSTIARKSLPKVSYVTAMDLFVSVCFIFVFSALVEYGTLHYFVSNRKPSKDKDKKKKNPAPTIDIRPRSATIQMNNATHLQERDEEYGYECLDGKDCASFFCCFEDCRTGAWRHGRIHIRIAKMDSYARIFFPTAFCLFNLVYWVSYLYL
Method in brief: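 Whole-cell patch clamp at −60 mV on HEK293 stably expressing α5β3γ2, pH 7.4 extracellular/CsCl internal solutions. Current evoked by 0.05 μM GABA, then compound in GABA solution; screening at 100 nM, dose-response 0.3–300 nM. Inverse agonist efficacy as % change of GABA current.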

In the case of `COc1cc2nnc(-c3cc(C)on3)n2nc1OCc1ncnn1C` [Embodiment 1, 3-(7-Methoxy-6-((1-methyl-1H-1,2,4-triazol-5-yl)methoxy)-[1,2,4]triazolo[4,3-b]pyridazin-3-yl)-5-methylisoxazole], the solubility thermodynamic at 4 h [1] is reported as 146 µg/mL (≈ 427 µM) and the inhibition at 0.1 µM [2] is reported as 41.9%.

In the case of `COCCOc1ccc(COc2nn3c(-c4cc(C)on4)nnc3cc2OC)nc1` [Embodiment 6], the solubility thermodynamic at 4 h [1] is reported as 46.9 µg/mL (≈ 114 µM) and the inhibition at 0.1 µM [2] is reported as 42.2%.

Work on `COc1cc2nnc(-c3cc(C)on3)n2nc1OCc1nccc(OC)c1OC` [Embodiment 7] yielded a solubility thermodynamic at 4 h [1] of 37.8 µg/mL (≈ 94.9 µM) and an inhibition at 0.1 µM [2] of 30.1%.

With `COCCCOc1ccc(COc2nn3c(-c4cc(C)on4)nnc3cc2OC)nc1` [Embodiment 9] the solubility thermodynamic at 4 h [1] was 60.3 µg/mL (≈ 141 µM) and the inhibition at 0.1 µM [2] was 40.6%.

In the case of `COc1cc2nnc(-c3cc(C)on3)n2nc1OCc1cnccn1` [Embodiment 19], the solubility thermodynamic at 4 h [1] is reported as 49.2 µg/mL (≈ 145 µM) and the inhibition at 0.1 µM [2] is reported as 35.4%.

`CCNCc1ccc(COc2nn3c(-c4cc(C)on4)nnc3cc2OC)nc1` [Embodiment 21] showed a solubility thermodynamic at 4 h [1] of 519 µg/mL (≈ 1310 µM) and an inhibition at 0.1 µM [2] of 36.3%.

In the case of `COCc1cc(-c2nnc3cc(OC)c(OCc4ccccn4)nn23)no1` [Embodiment 28, 3-(7-Methoxy-6-(pyridin-2-ylmethoxy)-[1,2,4]triazolo[4,3-b]pyridazin-3-yl)-5-(methoxymethyl)isoxazole], the solubility thermodynamic at 4 h [1] is reported as 55.2 µg/mL (≈ 150 µM) and the inhibition at 0.1 µM [2] is reported as 35.4%.

In the case of `COc1cc2nnc(-c3cc(C)on3)n2nc1OCc1ccncn1` [Embodiment 31], the solubility thermodynamic at 4 h [1] is reported as 43.8 µg/mL (≈ 129 µM) and the inhibition at 0.1 µM [2] is reported as 34.1%.

With `COCc1ccc(COc2nn3c(-c4cc(C)on4)nnc3cc2OC)nc1` [Embodiment 32] the solubility thermodynamic at 4 h [1] was 262 µg/mL (≈ 686 µM) and the inhibition at 0.1 µM [2] was 41.6%.

Work on `COc1cc2nnc(-c3cc(C)on3)n2nc1OCc1ccccn1` [Embodiment 33, 3-(7-Methoxy-6-(pyridinyl-2-methoxy)-[1,2,4]-triazolo[4,3-b]pyridazin-3-yl)-5-methylisoxazole] yielded a solubility thermodynamic at 4 h [1] of 32.3 µg/mL (≈ 95.5 µM) and an inhibition at 0.1 µM [2] of 40.4%.

With `COc1cc2nnc(-c3cc(C)on3)n2nc1OCc1ccc(=O)n(CCCC#N)n1` [Embodiment 36] the solubility thermodynamic at 4 h [1] was 123 µg/mL (≈ 290 µM) and the inhibition at 0.1 µM [2] was 25.9%.

`COc1cc2nnc(-c3cc(C)on3)n2nc1OCc1cccnn1` [Embodiment 39] gave a solubility thermodynamic at 4 h [1] of 180 µg/mL (≈ 531 µM) and an inhibition at 0.1 µM [2] of 36.5%.

With `COc1ccc(COc2nn3c(-c4cc(C)on4)nnc3cc2OC)nn1` [Embodiment 43] the solubility thermodynamic at 4 h [1] was 48.7 µg/mL (≈ 132 µM) and the inhibition at 0.1 µM [2] was 44.2%.

For `COc1ccc(COc2nn3c(-c4cc(CO)on4)nnc3cc2OC)nc1` [Embodiment 47, (3-(7-Methoxy-6-((5-methoxypyridin-2-yl)methoxy)-[1,2,4]triazolo[4,3-b]pyridazine-3-yl)isoxazol-5-yl)methanol], the solubility thermodynamic at 4 h [1] was 40.4 µg/mL (≈ 105 µM) and the inhibition at 0.1 µM [2] was 45.2%.

In the case of `COc1cnnc(COc2nn3c(-c4cc(C)on4)nnc3cc2OC)c1` [Embodiment 49], the solubility thermodynamic at 4 h [1] is reported as 143 µg/mL (≈ 386 µM) and the inhibition at 0.1 µM [2] is reported as 37.2%.

For `COCc1cccc(COc2nn3c(-c4cc(C)on4)nnc3cc2OC)n1` [Embodiment 50], the solubility thermodynamic at 4 h [1] was 83 µg/mL (≈ 217 µM) and the inhibition at 0.1 µM [2] was 38.8%.

`COCCCOc1ccnc(COc2nn3c(-c4cc(C)on4)nnc3cc2OC)c1` [Embodiment 55] gave a solubility thermodynamic at 4 h [1] of 38 µg/mL (≈ 89.1 µM) and an inhibition at 0.1 µM [2] of 25.1%.

With `COCCN1Cc2nc(COc3nn4c(-c5cc(C)on5)nnc4cc3OC)ccc2C1=O` [Embodiment 66] the solubility thermodynamic at 4 h [1] was 146 µg/mL (≈ 323 µM) and the inhibition at 0.1 µM [2] was 62%.

For `CCN1Cc2ccc(COc3nn4c(-c5cc(C)on5)nnc4cc3OC)nc2C1` [Embodiment 68], the solubility thermodynamic at 4 h [1] was 146 µg/mL (≈ 358 µM) and the inhibition at 0.1 µM [2] was 51.3%.

For `COCCn1cccc(COc2nn3c(-c4cc(C)on4)nnc3cc2OC)c1=O` [Embodiment 75], the solubility thermodynamic at 4 h [1] was 52.4 µg/mL (≈ 127 µM) and the inhibition at 0.1 µM [2] was 44.3%.

With `COc1cc2nnc(-c3cc(C)on3)n2nc1OCc1ccc2c(n1)CCNC2` [Embodiment 78] the solubility thermodynamic at 4 h [1] was 255 µg/mL (≈ 648 µM) and the inhibition at 0.1 µM [2] was 43.4%.

`COCCN1CCc2nc(COc3nn4c(-c5cc(C)on5)nnc4cc3OC)ccc2C1` [Embodiment 80] gave a solubility thermodynamic at 4 h [1] of 195 µg/mL (≈ 432 µM) and an inhibition at 0.1 µM [2] of 47.2%.

Compound `COCCOc1cnc(COc2nn3c(-c4cc(C)on4)nnc3cc2OC)cn1` [Embodiment 85] has a solubility thermodynamic at 4 h [1] of 53.9 µg/mL (≈ 130 µM) and an inhibition at 0.1 µM [2] of 57.3%.

In the case of `COc1cc2nnc(-c3cc(C)on3)n2nc1OCc1ccc2c(n1)CCN(Cc1ncccn1)C2=O` [Embodiment 88, 2-(((7-Methoxy-3-(5-methylisoxazol-3-yl)-[1,2,4]triazolo[4,3-b]pyridazin-6-yl)oxy)methyl)-6-(pyrimidin-2-ylmethyl)-7,8-dihydro-1,6-naphthyridin-5(6H)-one], the solubility thermodynamic at 4 h [1] is reported as 60.3 µg/mL (≈ 121 µM) and the inhibition at 0.1 µM [2] is reported as 32.5%.

For `COc1cc2nnc(-c3cc(C)on3)n2nc1OCc1ccc2c(n1)CCN(CCC#N)C2` [Embodiment 90], the solubility thermodynamic at 4 h [1] was 84.9 µg/mL (≈ 190 µM) and the inhibition at 0.1 µM [2] was 64.9%.

In the case of `COCCN1Cc2ccc(COc3nn4c(-c5cc(C)on5)nnc4cc3OC)nc2C1` [Embodiment 99], the solubility thermodynamic at 4 h [1] is reported as 222 µg/mL (≈ 508 µM) and the inhibition at 0.1 µM [2] is reported as 33.7%.

Work on `CCN1Cc2ccc(COc3nn4c(-c5cc(C)on5)nnc4cc3OC)nc2C1=O` [Embodiment 100] yielded a solubility thermodynamic at 4 h [1] of 70 µg/mL (≈ 166 µM) and an inhibition at 0.1 µM [2] of 35.3%.

In the case of `COc1cc2nnc(-c3cc(C)on3)n2nc1OCc1ccc2c(n1)CN(C(C)C)C2` [Embodiment 102], the solubility thermodynamic at 4 h [1] is reported as 30.8 µg/mL (≈ 73.1 µM) and the inhibition at 0.1 µM [2] is reported as 47.3%.

For `COc1cc2nnc(-c3cc(C)on3)n2nc1OCc1cccc(C2CCCNC2)n1` (centres unmarked) [Embodiment 103], the solubility thermodynamic at 4 h [1] was 322 µg/mL (≈ 764 µM) and the inhibition at 0.1 µM [2] was 43.9%.

Work on `COCCCN1CCc2nc(COc3nn4c(-c5cc(C)on5)nnc4cc3OC)ccc2C1=O` [Embodiment 107] yielded a solubility thermodynamic at 4 h [1] of 212 µg/mL (≈ 443 µM) and an inhibition at 0.1 µM [2] of 39.3%.

`CCN1CCc2nc(COc3nn4c(-c5cc(C)on5)nnc4cc3OC)ccc2C1=O` [Embodiment 109] showed a solubility thermodynamic at 4 h [1] of 54 µg/mL (≈ 124 µM) and an inhibition at 0.1 µM [2] of 47.3%.

Work on `COCCn1cc2nc(COc3nn4c(-c5cc(C)on5)nnc4cc3OC)ccc2n1` [Embodiment 240] yielded a solubility thermodynamic at 4 h [1] of 43.5 µg/mL (≈ 99.7 µM).

`CCn1cnc2ccc(COc3nn4c(-c5cc(C)on5)nnc4cc3OC)nc21` [Embodiment 249] gave an inhibition at 0.1 µM [2] of 51.2%.

`COc1cc2nnc(-c3cc(C)on3)n2nc1OCc1ccc2c(ccn2C2COC2)n1` [Embodiment 250] showed an inhibition at 0.1 µM [2] of 47.4%.

For `COc1cc2nnc(-c3cc(C)on3)n2nc1OCc1ccc2ccn(C3CCOCC3)c2n1` [Embodiment 252], the inhibition at 0.1 µM [2] was 42.2%.

`COc1cc2nnc(-c3cc(C)on3)n2nc1OCc1ccc2c(n1)CN(C1CCOC1)C2` (centres unmarked) [Embodiment 254] gave an inhibition at 0.1 µM [2] of 39%.

`COc1cc2nnc(-c3cc(C)on3)n2nc1OCc1ccc2c(n1)CN(C1COC1)C2` [Embodiment 255] gave an inhibition at 0.1 µM [2] of 45.4%.

`COc1cc2nnc(-c3cc(C)on3)n2nc1OCc1ccc2c(n1)CN(CCC#N)C2` [Embodiment 256, 3-(2-(((7-Methoxy-3-(5-methylisoxazol-3-yl)-[1,2,4]triazolo[4,3-b]pyridazin-6-yl)oxy)methyl)-5,7-dihydro-6H-pyrrolo[3,4-b]pyridin-6-yl)propanenitrile] showed an inhibition at 0.1 µM [2] of 40.2%.

`COc1cc2nnc(-c3cc(C)on3)n2nc1OCc1ccc2c(n1)CN(CCCC#N)C2` [Embodiment 257] gave an inhibition at 0.1 µM [2] of 50%.

For `COc1cc2nnc(-c3cc(C)on3)n2nc1OCc1ccc2nn(C3COC3)c(C)c2n1` [Embodiment 258], the inhibition at 0.1 µM [2] was 54.7%.
